Measurements from patent US8999980B2, “Oxazine derivatives” (Shionogi & Co., Ltd., priority 2009, dated 2015).

Molecular target: Recombinant human BACE1 (Homo sapiens (Human), UniProt P56817)
Assay: Assay of BACE1 inhibiting activity
Assay type: biochemical
Details: read-out: IC50 (50% inhibitory concentration against the enzymatic activity); Recombinant human BACE1 7.4 nmol/L, substrate peptide 18 nmol/L, pH 5.0, 30° C., 3 hours
Method: 48.5 μL of substrate peptide solution (Biotin-XSEVNLDAEFRHDSGC-Eu: X=ε-amino-n-capronic acid, Eu=Europium cryptate) was added to each well of 96-hole half-area plate (a black plate: Costar), and after addition of 0.5 μl of the test compound (dissolved in N,N′-dimethyl formaldehyde) and 1 μl of Recombinant human BACE1(R&D Systems), the reaction mixture was incubated at 30° C. for 3 hours. The substrate peptide was synthesized by reacting Cryptate TBPCOOH mono SMP (CIS bio international) with Biotin-XSEVNLDAEFRHDSGC (Peptide Institute, Inc.).
After the incubation for reaction, 50 μl of 8.0 μg/ml Streptavidin-XL665 (CIS bio international) dissolved in phosphate buffer (150 mmol/L K2HPO4—KH2PO4, pH 7.0, 0.008% Triton X-100, 0.8 mol/L KF) was added to each well and left stand at 30° C. for an hour.

Sequence of Recombinant human BACE1 (P56817 46-501): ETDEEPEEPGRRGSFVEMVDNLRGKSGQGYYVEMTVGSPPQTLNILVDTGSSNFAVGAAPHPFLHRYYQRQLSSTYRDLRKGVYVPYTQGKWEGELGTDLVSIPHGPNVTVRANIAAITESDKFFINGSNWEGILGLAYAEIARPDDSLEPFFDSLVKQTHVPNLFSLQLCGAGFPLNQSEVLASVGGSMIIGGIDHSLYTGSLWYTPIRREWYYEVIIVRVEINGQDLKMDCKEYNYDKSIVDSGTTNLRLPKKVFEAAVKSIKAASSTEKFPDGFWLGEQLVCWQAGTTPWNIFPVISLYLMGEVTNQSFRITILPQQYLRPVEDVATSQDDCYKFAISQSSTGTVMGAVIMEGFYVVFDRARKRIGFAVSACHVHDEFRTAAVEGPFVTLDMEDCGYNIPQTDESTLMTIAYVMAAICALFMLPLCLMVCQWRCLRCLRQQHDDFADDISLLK

IC50	Structure (SMILES)
≤ 30 µM	C=C1C[C@@](C)(c2cc(NC(=O)c3ncc(F)cc3F)ccc2F)N=C(N)O1 [Compound I-5]
0.027 µM	C=C1C[C@@](C)(c2cc(NC(=O)c3ccc(Cl)cn3)ccc2F)N=C(N)O1 [Compound I-2]
≤ 30 µM	C=C1C[C@@](C)(c2cc(NC(=O)c3ncc(Cl)cc3Cl)ccc2F)N=C(N)O1 [Compound I-4]
≤ 30 µM	C=C1C[C@@](C)(c2cc(NC(=O)c3cnc(OC)cn3)ccc2F)N=C(N)O1 [Compound I-3]
